Measured values reported in patent publication US20210255193A1, “LYSINE REACTIVE PROBES AND USES THEREOF” (The Scripps Research Institute, priority 2017, published 2021).

Columns and labels:
Assay in all cases: competitive isoTOP-ABPP
Format in all cases: binding
[1] = molecular target: T1, NAA25 N-alpha-acetyltransferase 25, NatB auxiliary subunit (Homo sapiens, UniProt Q14CX7); conditions: 50 uM, 231 sol, in vitro; for R value (DMSO/fragment) for probe 1 labeling: Q14CX7_K575
T1 construct: isoTOP-ABPP experiments performed in cell lysates (in vitro); endogenous in cells; host or cells: soluble proteome of human cancer cell lines (MDA-MB-231; Ramos and Jurkat also prepared)
T1 sequence (Q14CX7 whole entry, the tested form may be a part): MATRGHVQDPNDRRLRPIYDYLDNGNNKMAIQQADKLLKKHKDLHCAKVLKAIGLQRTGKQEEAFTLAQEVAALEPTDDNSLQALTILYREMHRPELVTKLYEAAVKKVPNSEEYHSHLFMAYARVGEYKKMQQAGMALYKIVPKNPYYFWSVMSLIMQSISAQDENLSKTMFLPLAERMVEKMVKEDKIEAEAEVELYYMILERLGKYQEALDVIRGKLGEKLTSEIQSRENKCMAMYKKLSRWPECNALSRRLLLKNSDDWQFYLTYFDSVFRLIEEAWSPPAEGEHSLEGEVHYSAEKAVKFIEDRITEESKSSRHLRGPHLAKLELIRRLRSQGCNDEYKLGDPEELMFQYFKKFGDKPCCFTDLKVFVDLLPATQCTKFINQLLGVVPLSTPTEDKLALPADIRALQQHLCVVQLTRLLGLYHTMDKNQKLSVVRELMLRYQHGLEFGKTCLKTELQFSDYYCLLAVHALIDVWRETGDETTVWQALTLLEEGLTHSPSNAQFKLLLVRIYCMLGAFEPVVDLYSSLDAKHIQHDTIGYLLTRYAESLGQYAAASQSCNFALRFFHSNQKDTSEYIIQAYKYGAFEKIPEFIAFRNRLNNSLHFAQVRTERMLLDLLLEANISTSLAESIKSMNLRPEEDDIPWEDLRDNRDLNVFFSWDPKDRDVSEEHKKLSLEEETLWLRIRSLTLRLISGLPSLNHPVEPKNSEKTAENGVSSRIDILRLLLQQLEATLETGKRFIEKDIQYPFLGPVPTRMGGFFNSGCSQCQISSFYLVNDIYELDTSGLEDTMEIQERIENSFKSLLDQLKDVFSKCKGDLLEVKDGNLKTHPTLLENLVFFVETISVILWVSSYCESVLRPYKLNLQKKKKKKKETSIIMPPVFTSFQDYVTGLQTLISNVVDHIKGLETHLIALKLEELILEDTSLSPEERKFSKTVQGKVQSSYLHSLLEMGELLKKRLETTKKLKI
Procedure, shortened: (§1)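 Lysate + fragment (50 μM activated ester / 100 μM guanidinylating agent) or DMSO → 0.1 mM STP-alkyne, 1 h, RT → CuAAC to TEV tags (compound light, DMSO heavy) → LC-MS. R = heavy/light MS1 area; liganded lysine if R≥4.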

[2] = molecular target: T2, GOLGB1 Golgin subfamily B member 1 (Homo sapiens, UniProt Q14789); conditions: 50 uM, in vitro; for R value (DMSO/fragment) for probe 1 labeling: Q14789_K103; for R value (DMSO/fragment) for probe 1 labeling / isoTOP-ABPP reactivity ratio at lysine Q14789_K103: 231 sol
T2 construct: isoTOP-ABPP experiments performed in cell lysates (in vitro); endogenous in cells; host or cells: soluble proteome of human cancer cell lines (MDA-MB-231, Ramos, Jurkat)
T2 sequence (Q14789 whole entry, the tested form may be a part): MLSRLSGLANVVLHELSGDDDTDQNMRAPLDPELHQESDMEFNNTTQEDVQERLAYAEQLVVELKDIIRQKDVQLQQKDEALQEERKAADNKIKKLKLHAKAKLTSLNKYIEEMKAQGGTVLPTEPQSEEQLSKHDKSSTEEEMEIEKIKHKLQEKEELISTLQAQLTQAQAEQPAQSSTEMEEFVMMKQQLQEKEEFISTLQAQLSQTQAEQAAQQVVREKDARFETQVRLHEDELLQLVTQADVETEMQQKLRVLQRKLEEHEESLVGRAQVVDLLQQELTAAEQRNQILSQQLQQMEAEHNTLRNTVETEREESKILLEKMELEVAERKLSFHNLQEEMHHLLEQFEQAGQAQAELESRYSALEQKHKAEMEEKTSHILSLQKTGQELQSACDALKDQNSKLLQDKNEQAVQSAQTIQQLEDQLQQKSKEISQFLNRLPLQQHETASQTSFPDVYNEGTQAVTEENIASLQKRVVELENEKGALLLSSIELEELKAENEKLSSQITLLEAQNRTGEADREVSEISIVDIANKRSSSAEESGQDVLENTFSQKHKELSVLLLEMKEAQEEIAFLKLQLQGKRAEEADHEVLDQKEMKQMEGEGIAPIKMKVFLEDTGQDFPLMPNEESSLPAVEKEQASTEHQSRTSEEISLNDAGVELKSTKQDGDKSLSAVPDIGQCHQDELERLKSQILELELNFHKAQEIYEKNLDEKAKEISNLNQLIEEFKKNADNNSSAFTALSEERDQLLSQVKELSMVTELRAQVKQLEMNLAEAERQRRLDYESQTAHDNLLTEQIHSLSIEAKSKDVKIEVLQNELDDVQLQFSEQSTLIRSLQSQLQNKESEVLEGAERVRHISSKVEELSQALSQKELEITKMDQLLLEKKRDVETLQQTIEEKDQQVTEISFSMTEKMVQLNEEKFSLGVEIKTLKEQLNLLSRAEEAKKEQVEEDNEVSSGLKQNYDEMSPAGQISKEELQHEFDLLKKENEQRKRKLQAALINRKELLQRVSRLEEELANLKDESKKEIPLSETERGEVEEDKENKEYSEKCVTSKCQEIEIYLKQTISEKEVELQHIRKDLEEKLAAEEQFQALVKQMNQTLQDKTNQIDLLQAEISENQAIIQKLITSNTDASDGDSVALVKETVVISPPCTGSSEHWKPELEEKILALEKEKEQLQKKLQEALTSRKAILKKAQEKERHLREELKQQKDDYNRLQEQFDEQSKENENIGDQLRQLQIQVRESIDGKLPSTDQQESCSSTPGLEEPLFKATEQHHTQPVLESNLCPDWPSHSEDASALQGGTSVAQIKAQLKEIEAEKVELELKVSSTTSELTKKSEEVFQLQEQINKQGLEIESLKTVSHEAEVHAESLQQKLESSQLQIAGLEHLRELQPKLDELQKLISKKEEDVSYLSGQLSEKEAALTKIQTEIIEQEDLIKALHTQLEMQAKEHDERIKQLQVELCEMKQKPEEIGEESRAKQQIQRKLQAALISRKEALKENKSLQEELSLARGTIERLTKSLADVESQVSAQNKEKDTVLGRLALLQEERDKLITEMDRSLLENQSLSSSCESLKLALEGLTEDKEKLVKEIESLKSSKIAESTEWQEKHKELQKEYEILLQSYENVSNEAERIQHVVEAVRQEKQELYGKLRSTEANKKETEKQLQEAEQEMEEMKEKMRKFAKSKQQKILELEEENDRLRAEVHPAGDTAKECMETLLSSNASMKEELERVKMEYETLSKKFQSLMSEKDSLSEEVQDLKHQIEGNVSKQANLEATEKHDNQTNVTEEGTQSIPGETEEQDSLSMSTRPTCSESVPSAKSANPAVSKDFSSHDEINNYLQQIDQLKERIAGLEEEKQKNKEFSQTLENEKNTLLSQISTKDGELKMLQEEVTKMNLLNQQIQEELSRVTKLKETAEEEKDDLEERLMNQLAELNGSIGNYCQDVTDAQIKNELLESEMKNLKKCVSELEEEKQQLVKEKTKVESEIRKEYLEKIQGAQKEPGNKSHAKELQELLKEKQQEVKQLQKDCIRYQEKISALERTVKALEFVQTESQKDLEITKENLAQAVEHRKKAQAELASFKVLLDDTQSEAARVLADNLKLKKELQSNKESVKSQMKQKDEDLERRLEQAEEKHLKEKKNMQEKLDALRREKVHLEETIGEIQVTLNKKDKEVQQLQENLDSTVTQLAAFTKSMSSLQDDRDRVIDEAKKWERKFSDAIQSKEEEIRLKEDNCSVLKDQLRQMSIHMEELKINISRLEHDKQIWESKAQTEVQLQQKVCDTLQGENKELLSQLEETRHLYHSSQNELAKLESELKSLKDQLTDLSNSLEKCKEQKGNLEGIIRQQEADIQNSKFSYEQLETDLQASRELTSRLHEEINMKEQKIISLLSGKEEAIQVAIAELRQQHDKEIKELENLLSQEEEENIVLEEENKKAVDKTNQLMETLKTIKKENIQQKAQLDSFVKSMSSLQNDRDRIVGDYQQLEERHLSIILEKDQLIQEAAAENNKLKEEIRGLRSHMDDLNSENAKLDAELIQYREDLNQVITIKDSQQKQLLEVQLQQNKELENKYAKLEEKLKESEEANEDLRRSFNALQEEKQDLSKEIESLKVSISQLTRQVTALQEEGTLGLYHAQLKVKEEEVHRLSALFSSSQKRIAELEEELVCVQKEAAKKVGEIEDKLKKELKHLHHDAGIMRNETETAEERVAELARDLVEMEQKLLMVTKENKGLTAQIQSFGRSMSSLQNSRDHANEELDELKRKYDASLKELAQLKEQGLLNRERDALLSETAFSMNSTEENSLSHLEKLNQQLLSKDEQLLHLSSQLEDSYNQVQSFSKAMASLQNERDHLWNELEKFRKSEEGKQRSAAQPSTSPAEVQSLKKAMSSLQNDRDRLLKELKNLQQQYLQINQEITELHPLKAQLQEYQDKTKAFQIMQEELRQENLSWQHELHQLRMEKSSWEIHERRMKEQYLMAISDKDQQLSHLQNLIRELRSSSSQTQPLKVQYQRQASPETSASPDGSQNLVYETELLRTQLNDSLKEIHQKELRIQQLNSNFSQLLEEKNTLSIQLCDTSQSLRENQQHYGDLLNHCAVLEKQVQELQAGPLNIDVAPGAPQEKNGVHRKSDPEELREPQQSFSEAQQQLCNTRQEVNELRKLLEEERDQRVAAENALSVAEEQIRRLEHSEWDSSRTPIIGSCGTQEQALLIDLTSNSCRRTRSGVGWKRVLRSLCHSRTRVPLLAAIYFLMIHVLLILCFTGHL
Procedure, shortened: as §1

[3] = molecular target: T3, MAP2K3 Dual specificity mitogen-activated protein kinase (Homo sapiens, UniProt P46734); conditions: 50 uM, in vitro; for R value (DMSO/fragment) for probe 1 labeling: P46734_K93
T3 construct: isoTOP-ABPP experiments performed in cell lysates (in vitro); endogenous in cells; host or cells: soluble proteome of human cancer cell lines (MDA-MB-231; Ramos and Jurkat also prepared)
T3 sequence (P46734 1-347): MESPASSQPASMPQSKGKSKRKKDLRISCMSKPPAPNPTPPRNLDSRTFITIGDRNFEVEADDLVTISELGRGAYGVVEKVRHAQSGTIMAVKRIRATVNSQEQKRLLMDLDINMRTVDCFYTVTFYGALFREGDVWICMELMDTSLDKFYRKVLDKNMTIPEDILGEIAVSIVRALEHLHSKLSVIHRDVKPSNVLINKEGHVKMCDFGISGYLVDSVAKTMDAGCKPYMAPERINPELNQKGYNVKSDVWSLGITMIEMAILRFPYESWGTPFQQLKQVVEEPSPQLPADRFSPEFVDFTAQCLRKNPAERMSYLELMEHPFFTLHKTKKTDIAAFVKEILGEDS
Procedure, shortened: as §1

[4] = molecular target: T4, GSTT2B Glutathione S-transferase theta-2B (Homo sapiens, UniProt P0CG30); conditions: 50 uM, in vitro; for R value (DMSO/fragment) for probe 1 labeling: P0CG30_K53; for R value (DMSO/fragment) for probe 1 labeling / isoTOP-ABPP reactivity ratio at lysine P0CG30_K53: 231 sol
T4 construct: isoTOP-ABPP experiments performed in cell lysates (in vitro); endogenous in cells; host or cells: MDA-MB-231 soluble lysate
T4 sequence (P0CG30 1-244): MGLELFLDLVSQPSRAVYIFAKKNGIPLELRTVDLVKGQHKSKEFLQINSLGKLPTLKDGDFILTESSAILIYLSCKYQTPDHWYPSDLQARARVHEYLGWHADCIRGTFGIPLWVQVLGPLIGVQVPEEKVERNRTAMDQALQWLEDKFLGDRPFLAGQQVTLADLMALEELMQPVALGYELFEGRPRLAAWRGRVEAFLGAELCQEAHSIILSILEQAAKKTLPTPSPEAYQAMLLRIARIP
Procedure, shortened: as §1

[5] = molecular target: T5, TRMT10C Mitochondrial ribonuclease P protein 1 (Homo sapiens, UniProt Q7L0Y3); conditions: 50 uM, in vitro; for R value (DMSO/fragment) for probe 1 labeling: Q7L0Y3_K325; for R value (DMSO/fragment) for probe 1 labeling / isoTOP-ABPP reactivity ratio at lysine Q7L0Y3_K325: 231 sol
T5 construct: isoTOP-ABPP experiments performed in cell lysates (in vitro); endogenous in cells; host or cells: soluble proteome of human cancer cell lines (MDA-MB-231; Ramos and Jurkat also prepared)
T5 sequence (Q7L0Y3 40-403): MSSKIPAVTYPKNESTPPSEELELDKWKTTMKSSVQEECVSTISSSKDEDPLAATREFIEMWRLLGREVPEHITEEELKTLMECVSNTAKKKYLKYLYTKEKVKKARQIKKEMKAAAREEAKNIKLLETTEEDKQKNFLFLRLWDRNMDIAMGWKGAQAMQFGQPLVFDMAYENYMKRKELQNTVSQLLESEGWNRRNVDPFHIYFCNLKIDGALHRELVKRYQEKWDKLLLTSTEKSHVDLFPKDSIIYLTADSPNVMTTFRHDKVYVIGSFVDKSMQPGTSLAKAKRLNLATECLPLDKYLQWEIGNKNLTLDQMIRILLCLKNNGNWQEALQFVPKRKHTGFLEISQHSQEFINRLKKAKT
Procedure, shortened: as §1

DCTN2 Dynactin subunit 2 = molecular target: T6, DCTN2 Dynactin subunit 2 (Homo sapiens, UniProt Q13561); conditions: 50 uM, in vitro; for R value (DMSO/fragment) for probe 1 labeling: Q13561_K175; for R value (DMSO/fragment) for probe 1 labeling / isoTOP-ABPP reactivity ratio at lysine Q13561_K175: 231 sol
T6 construct: isoTOP-ABPP experiments performed in cell lysates (in vitro); endogenous in cells; host or cells: soluble proteome of human cancer cell lines (MDA-MB-231, Ramos, Jurkat)
T6 sequence (Q13561 whole entry, the tested form may be a part): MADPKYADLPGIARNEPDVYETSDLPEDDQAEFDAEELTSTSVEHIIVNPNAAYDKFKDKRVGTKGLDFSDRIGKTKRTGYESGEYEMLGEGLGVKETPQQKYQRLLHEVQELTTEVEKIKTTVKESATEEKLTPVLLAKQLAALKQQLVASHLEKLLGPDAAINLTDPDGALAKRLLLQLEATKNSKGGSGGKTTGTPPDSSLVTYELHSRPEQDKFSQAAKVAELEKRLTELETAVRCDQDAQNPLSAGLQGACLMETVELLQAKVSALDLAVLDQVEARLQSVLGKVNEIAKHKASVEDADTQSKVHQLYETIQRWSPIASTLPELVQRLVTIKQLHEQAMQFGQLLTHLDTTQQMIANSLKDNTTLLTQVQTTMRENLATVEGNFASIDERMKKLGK
Procedure, shortened: as §1

SMILES	R value (DMSO/fragment) for probe 1 labeling [2]	R value (DMSO/fragment) for probe 1 labeling ([3]; 231 sol)	R value (DMSO/fragment) for probe 1 labeling [4]	isoTOP-ABPP reactivity ratio at lysine Q14CX7_K575 [1]	isoTOP-ABPP reactivity ratio at lysine Q14789_K103 [2]	isoTOP-ABPP reactivity ratio at lysine Q13561_K175 (DCTN2 Dynactin subunit 2)	isoTOP-ABPP reactivity ratio at lysine P0CG30_K53 [4]	other results
O=C(CCc1cn(-c2ccccc2)nc1-c1ccccc1)Oc1c(F)c(F)c(F)c(F)c1F [fragment 19, Pentafluorophenyl 3-(1,3-diphenyl-1H-pyrazol-4-yl)propanoate]	0.9	0.9	1.0					R value (DMSO/fragment) for probe 1 labeling [1]: 1.0
O=C(Oc1c(F)c(F)c(F)c(F)c1F)C(c1ccccc1)c1ccccc1 [fragment 20, Pentafluorophenyl 2,2-diphenylacetate]	1.0	0.9	1.0					R value (DMSO/fragment) for probe 1 labeling [5]: 1.1; R value (DMSO/fragment) for probe 1 labeling [1]: 1.1; R value (DMSO/fragment) for probe 1 labeling (DCTN2 Dynactin subunit 2): 1.0
COc1cc(CCC(=O)Oc2c(F)c(F)c(F)c(F)c2F)cc(OC)c1OC [fragment 23, Pentafluorophenyl 3-(3,4,5-trimethoxyphenyl)propanoate]	1.0	0.9	0.9					R value (DMSO/fragment) for probe 1 labeling [5]: 1.3; R value (DMSO/fragment) for probe 1 labeling (DCTN2 Dynactin subunit 2): 1.1
O=C(Oc1c(F)c(F)c(F)c(F)c1F)C1CCN(C(=O)OCc2ccccc2)CC1 [fragment 24, 1-Benzyl 4-(pentafluorophenyl) piperidine-1,4-dicarboxylate]				1.1	1.0	1.3	1.0	isoTOP-ABPP reactivity ratio at lysine Q7L0Y3_K325 [5]: 1.4
O=C(Oc1c(F)c(F)c(F)c(F)c1F)c1ccc2ccccc2n1 [fragment 25, Pentafluorophenyl quinoline-2-carboxylate]				0.9	1.0	1.1	1.0	isoTOP-ABPP reactivity ratio at lysine Q7L0Y3_K325 [5]: 1.1
O=C(CCc1coc2cc(F)ccc2c1=O)Oc1c(F)c(F)c(F)c(F)c1F [fragment 26, Pentafluorophenyl 3-(7-fluoro-4-oxo-4H-chromen-3-yl)propanoate]				0.9	1.1	1.6	1.3	isoTOP-ABPP reactivity ratio at lysine P46734_K93 ([3]; 231 sol): 1.1
O=C(CN1C(=O)c2ccccc2C1=O)Oc1c(F)c(F)c(F)c(F)c1F [fragment 27, Pentafluorophenyl 2-(1,3-dioxoisoindolin-2-yl)acetate]				1.4	1.3	1.2	0.9	
CCn1cc(C(=O)Oc2c(F)c(F)c(F)c(F)c2F)c(=O)c2ccc(C)nc21 [fragment 28, Pentafluorophenyl 1-ethyl-7-methyl-4-oxo-1,4-dihydro-1,8-naphthyridine-3-carboxylate]				0.8	0.9		1.0	
O=C(Oc1ccc([N+](=O)[O-])cc1[N+](=O)[O-])C1CCN(C(=O)OCc2ccccc2)CC1 [fragment 34, 1-Benzyl 4-(2,4-dinitrophenyl) piperidine-1,4-dicarboxylate]								isoTOP-ABPP ratio (R) at liganded lysine Q7L0Y3_K325 ([5]; sol, 231): 1.0; isoTOP-ABPP ratio (R) at liganded lysine Q14789_K103 ([2]; sol, 231): 0.9; isoTOP-ABPP ratio (R) at liganded lysine Q13561_K175 (DCTN2 Dynactin subunit 2; sol, 231): 1.7; isoTOP-ABPP ratio (R) at liganded lysine P46734_K93 ([3]; sol, 231): 0.8; isoTOP-ABPP ratio (R) at liganded lysine P0CG30_K53 ([4]; sol, 231): 0.5
